Source: patent US5021435A, “Certain pyridyl-thiazolidin-4-one having anti-ulcer activity” (Sumitomo Pharmaceuticals Company, Limited, priority 1988, dated 1991)
≈ marks a conversion by molar mass, not a printed value. Like-named read-outs stand apart in the source and are kept apart here.

Assays:
[1] = system: water-immersion and restraint stress induced gastric ulcer; experiment: Antiulcer test: water-immersion and restraint stress induced gastric ulcer model in rats; type: in vivo, Sprague-Dawley strain male rats; conditions: for inhibition in vivo at 50 mg/kg / inhibition in vivo at 100 mg/kg / inhibition in vivo at 30 mg/kg: Rattus norvegicus, po, 17 h, read-out: Effect (inhibitory percentage of ulcer formation, judgement); for Test on anti-ulceration (ulcer caused by stress), Test (1): 100 mg/kg P.O.; for inhibition in vivo at 100 mg/kg: 100 mg/kg oral; for inhibition of stress-induced ulcer (in words): discussion statement
Procedure: Sprague-Dawley strain male rats (body weight: 200-250 g) fasted for 24 hours (with free access of water) were used for the test. (1) Antiulcer test Anticular effect of the compound was examined by means of water-immersion and restraint stress induced gastric ulcer model in rats. The ulcer experiment was performed in accordance with the method of Takagi and Okabe referred to hereinafter. Rats were immobilized in a restraint cage. The animals were then immersed vertically to the level of the xiphoid process in water bath (23° C.) for 17 hr and killed by deep ether anesthesia. The stomach of each rat was removed and inflated by injecting 10 ml of 1% formalin to fix the inner and outer layer of gastric wall. Subsequently, the stomach was incised along the greater curveture and the length of ulcers in glandular portion was measured. The sum of the length (mm) of each ulcer was used as an ulcer index. Test compound was suspended in 0.5% methylcellulose solution and was orally administered at a volume of 5 ml/kg to the rat 30 minutes prior to stress loading. To the control group was administered vehicle alone at the same volume. Inhibitory percentage of ulcer formation of the compound was calculated from the following formula. [formula]

[2] = system: PAF-induced ulcer; experiment: Test on PAF-induced ulcer; type: in vivo, Sprague-Dawley strain male rats; conditions: for Test on inhibition of PAF-induced ulcer, Test (3): rat, 100 mg/kg P.O. 30 minutes before PAF, effective = statistically significant vs control
Procedure: (§1) Sprague-Dawley strain male rats (body weight: 200-250 g) fasted for 24 hours (with free access of water) were used for the test.
(3) Test on PAF-induced ulcer
Inhibitory effect of the compound on PAF-induced ulcer was examined. PAF-induced ulcer in rat was caused by intravenous administration of 10 μg/kg of PAF. One hour after PAF administration, rat was killed under deep ether anesthesia and stomach was removed. The stomach was inflated and fixed by injecting 10 ml of 1% formalin solution and then cut open along greater curvature. Areas (mm^2) of the ulcerated portions were measured and sum of them was taken as ulcer-index. Test compound was suspended in a 0.5% methylcellulose solution and orally administered at a volume of 5 ml/kg 30 minutes before the administration of PAF. Vehicle alone was administered to control rat at the same volume with test group. With reference to the effect of the compound to inhibit ulceration, results of treated group and those of control group were compared and those which have a statistical significance was judged to be effective.

[3] = system: PAF-induced platelet aggregation; experiment: Anti-PAF test in vitro (inhibitory action on PAF-induced platelet aggregation, PRP); type: cell-based, rabbit (male Japanese white rabbits); conditions: Oryctolagus cuniculus, rabbit PRP
Procedure: The inhibition of PAF-induced platelet aggregation was examined by using a platelet-rich plasma (PRP) of rabbit according to the method of Mustard et al. [J. F. Mustard et al., J. Lab. Blin. Med., 64, 548 (1964)], which is an improved method of Born [G.V.R. Born, J. Physiol., London, 162, 67 (1962) ]. That is, 80-100 ml of blood per animal was collected from carotoid arteries of conscious male Japanese white rabbits into a polyethylene vessel containing 1/10 the volume of a 3.8% sodium citrate solution. A portion (about 3 ml) of the collected blood was centrifuged at a high speed (11,000 rpm) for 60 seconds to give a platelet-poor plasma (PPP) as supernatant. The remainder of the blood was centrifuged at a low speed (1000 rpm) for 10 minutes to give a platelet-rich plasma (PRP) as supernatant.
The degree of platelet aggregation was determined by nephelometry with an aggregometer (Hematracer, Niko Biosciene Co.) while stirring the PRP at 1000 rpm at 37° C. The degree of platelet aggregation was expressed in terms of the light transmittance (%), the value of PRP being taken as 0% and the value of […]. A portion (0.2 ml) of the PRP was placed into a glass cuvette containing a silicone-coated stirring iron bar, and 2 μl of dimethylsulfoxide was added. After 2 minutes, PAF dissolved in physiological saline containing 0.25% BSA was added to give a final PAF concentration of […], and the maximum aggregation was determined. To measure the inhibitory activity of test compounds on the platelet aggregation induced by PAF, 2 μl of a dimethylsulfoxide solution of each test compound was added in place of dimethylsulfoxide. The inhibitory percentage by the test compound of PAF-induced platelet aggregation was calculated according to the following equation and the value of IC50 was determined. [formula]

[4] = system: PAF-induced ulcer; conditions: cited from earlier work
[5] = system: peripherally stimulated gastric acid secretion (histamine); experiment: Gastric acid secretion stimulated peripherally by histamine; type: in vivo, Sprague-Dawley strain male rats; conditions: rat, 30 mg/kg into duodenum 2 hours before stimulant; histamine 10 mg/kg s.c.
Procedure: as §1
(§2) (2) Test on central acting inhibitory effect of gastric acid secretion
(§3) Whether the antisecretory effect of the compound is based on central action or not was judged according to mode of antisecretory action of the compound to centrally stimulated gastric acid secretion and peripherally stimulated gastric acid secretion. […]
(§4) We determined the site of action (central or peripheral) of the compound by the result from above examination. […]
(§5) Gastric acid was collected every 20 min. by flushing the gastric lumen with 5 ml saline. The acid content of each sample was determined by titration of 0.02 N-NaOH.
(§6) Peripheral stimulation of gastric acid secretion was carried out by subcutaneous administration of 10 mg/kg of histamine or 1 mg/kg of bethanechol. […] Inhibitory percentage of acid secretion of the compound was calculated from the following formula. […]

[6] = system: peripherally stimulated gastric acid secretion (bethanechol); experiment: Gastric acid secretion stimulated peripherally by bethanechol; type: in vivo, Sprague-Dawley strain male rats; conditions: rat, 30 mg/kg into duodenum 2 hours before stimulant; bethanechol 1 mg/kg s.c.
Procedure: as §1, §2, §3, §4, §5, §6

[7] = system: centrally stimulated gastric acid secretion (baclofen); experiment: Central acting inhibitory effect of gastric acid secretion: baclofen-stimulated (central); type: in vivo, Sprague-Dawley strain male rats; conditions: rat, 30 mg/kg into duodenum 2 hours before stimulant; baclofen 2 mg/kg s.c.
Procedure: as §1, §2, §3, §4, §5, §6

[8] = rat, 50 mg/kg oral, 30 minutes prior to stress
[9] = rat, 30 minutes prior to stress

CN1C(=O)C(c2ccccc2)SC1c1cccnc1 (stereo not drawn) [Example 52]
inhibition in vivo at 50 mg/kg [1, 8]: 40 to 60%

CN1C(=O)C(c2ccc(Cl)cc2)SC1c1ccncc1 (stereo not drawn) [Example 46]
inhibition in vivo at 50 mg/kg [1, 8]: 60 to 80%

CN1C(=O)C(c2ccc(Cl)cc2)SC1c1cccnc1 (stereo not drawn) [Example 1, 5-(4-chlorophenyl)-3-methyl-2-(3-pyridyl)thiazolidin-4-one]
Test on inhibition of PAF-induced ulcer, Test (3) [2]: Effective
inhibition in vivo at 50 mg/kg [1, 8]: 60 to 80%
Test on anti-ulceration (ulcer caused by stress), Test (1) ([1]; rat): Effective
IC50 [3]: 5.8 µg/mL (≈ 19 µM)

COc1ccc(C2NC(=O)C(C)S2)cc1OC (stereo not drawn) [Mezolidon, 2-(3,4-dimethoxyphenyl)-5-methylthiazolidin-4-one, reference compound]
inhibition in vivo at 100 mg/kg [1, 9]: < 40%
effect by the test method employed in the present invention ([1]; statement in words): nearly ineffective

CN1C(=O)C(c2ccc(Cl)cc2)[S+]([O-])C1c1cccnc1 (single isomer, unassigned) [Example 30, 5-(4-chlorophenyl)-3-methyl-2-(3-pyridyl)-1-oxo-thiazolidin-4-one]
inhibition in vivo at 50 mg/kg [1, 8]: 40 to 60%

CN/C(=N/CCSCc1nc[nH]c1C)NC#N [Cimetidine, reference compound]
inhibition in vivo at 30 mg/kg [1]: 60 to 80%
inhibition of stress-induced ulcer (in words) [1]: can be inhibited
Test on anti-ulceration (ulcer caused by stress), Test (1) ([1]; rat): Effective
inhibition of PAF-induced ulcer (in words) ([4]; discussion statement, Table 5 cites Nature 319, 54-56 (1986)): cannot be inhibited
Test on inhibition of PAF-induced ulcer ([4]; table head 100 mg/kg P.O., (*) Nature 319, 54-56 (1986)): Ineffective

O=C1NC(c2cccnc2)SC1c1ccc(Cl)cc1 (stereo not drawn) [Example 178]
inhibition in vivo at 100 mg/kg [1, 9]: 40 to 60%

CN1C(=O)[C@@H](c2ccc(Cl)cc2)S[C@H]1c1cccnc1 (single isomer, unassigned) [Example 33, (+)-cis-5-(4-chlorophenyl)-3-methyl-2-(3-pyridyl)thiazolidin-4-one]
inhibition in vivo at 30 mg/kg ([1]; rat, 30 mg/kg oral, 30 minutes prior to stress): > 80%

CN1C(=O)C(c2ccc(Cl)cc2)SC1c1cccnc1 (single isomer, unassigned) [2 (Isomer II), 5-(4-Chlorophenyl)-3-methyl-2-(3-pyridyl)-thiazolidin-4-one]
Inhibitory percentage of acid secretion (judgement), stimulant histamine [5]: - (Less than 40%.)
Inhibitory percentage of acid secretion (judgement), stimulant bethanechol [6]: - (Less than 40%.)
inhibition in vivo at 50 mg/kg [1, 8]: > 80%
Inhibitory percentage of acid secretion (judgement), stimulant baclofen [7]: +++ (Not less than 80%.)

COc1ccc(C2SC(c3cccnc3)N(C)C2=O)cc1 (stereo not drawn) [Example 48]
inhibition in vivo at 50 mg/kg [1, 8]: 40 to 60%

CN1C(=O)C(c2ccc(F)cc2)SC1c1cccnc1 (stereo not drawn) [Example 42]
Test on inhibition of PAF-induced ulcer, Test (3) [2]: Effective
inhibition in vivo at 50 mg/kg [1, 8]: > 80%
Test on anti-ulceration (ulcer caused by stress), Test (1) ([1]; rat): Effective
IC50 [3]: 4 µg/mL (≈ 13.9 µM)

CN1C(=O)[C@H](c2ccc(C(F)(F)F)cc2)S[C@@H]1c1cccnc1 (relative stereo) [Example 246]
inhibition in vivo at 100 mg/kg [1, 9]: 60 to 80%

CN1C(=O)[C@H](c2ccc(F)cc2)S[C@@H]1c1cccnc1 (relative stereo) [Example 221]
inhibition in vivo at 100 mg/kg [1, 9]: > 80%

CN1C(=O)[C@@H](c2ccc(Cl)cc2)S[C@H]1c1cccnc1 (single isomer, unassigned) [Example 34, (-)-cis-5-(4-chlorophenyl)-3-methyl-2-(3-pyridyl)thiazolidin-4-one]
inhibition in vivo at 100 mg/kg [1, 9]: 60 to 80%

CN1C(=O)C(c2ccccc2F)SC1c1cccnc1 (stereo not drawn) [Example 198]
inhibition in vivo at 100 mg/kg [1, 9]: > 80%

CN1C(=O)C(c2ccccc2F)[S+]([O-])C1c1cccnc1 (stereo not drawn) [Example 199]
inhibition in vivo at 100 mg/kg [1, 9]: > 80%

COc1cc([C@H]2CC[C@H](c3cc(OC)c(OC)c(OC)c3)O2)cc(OC)c1OC (relative stereo) [Example L-652731, trans2,5-bis(3,4,5-trimethoxyphenyl)tetrahydrofuran, reference compound]
inhibition of PAF-induced ulcer (in words) ([2]; discussion statement): remarkably inhibited
Test on inhibition of PAF-induced ulcer, Test (3) [2]: Effective
inhibition of stress-induced ulcer (in words) [1]: cannot be inhibited
Test on anti-ulceration (ulcer caused by stress), Test (1) ([1]; rat): Ineffective
IC50 [3]: 0.2 µg/mL (≈ 0.494 µM)

CN1C(=O)C(c2ccc(Cl)cc2)[S+]([O-])C1c1cccnc1 (single isomer, unassigned) [Example 31, 5-(4-chlorophenyl)-3-methyl-2-(3-pyridyl)-1-oxo-thiazolidin-4-one]
Effect (inhibitory percentage of ulcer formation, judgement) ([1]; rat, 50 mg/kg oral, 30 minutes prior to stress, 50 mg/kg): ++ (Not less than 60% and less than 80%.)
